Test results as given in patent US20080090805A1, “CB-1 MODULATING COMPOUNDS AND THEIR USE” (ACADIA PHARMACEUTICALS INC., priority 2005, published 2008).

Target: native CB1 receptors (Rattus norvegicus, UniProt P20272)
Experiment: CB1 receptor rat binding assay ([3H]SR141716A, rat brain membranes)
Details: rat brain membranes, [3H]SR141716A; for Ki: read-out: Binding rat pKi (converted)

Sequence of native CB1 receptors (P20272 whole entry): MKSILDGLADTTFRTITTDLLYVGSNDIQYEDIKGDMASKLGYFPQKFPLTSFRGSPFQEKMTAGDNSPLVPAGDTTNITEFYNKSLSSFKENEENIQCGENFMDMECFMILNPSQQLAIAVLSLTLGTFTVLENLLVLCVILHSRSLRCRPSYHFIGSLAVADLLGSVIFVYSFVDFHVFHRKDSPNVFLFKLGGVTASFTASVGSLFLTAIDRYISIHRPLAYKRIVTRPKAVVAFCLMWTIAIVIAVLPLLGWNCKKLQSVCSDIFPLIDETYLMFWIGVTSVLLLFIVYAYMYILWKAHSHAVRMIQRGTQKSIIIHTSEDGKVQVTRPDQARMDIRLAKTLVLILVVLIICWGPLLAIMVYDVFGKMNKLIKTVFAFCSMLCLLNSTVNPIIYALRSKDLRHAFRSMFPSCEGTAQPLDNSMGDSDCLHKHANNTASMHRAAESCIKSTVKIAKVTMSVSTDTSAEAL

Row | Compound | Binding rat Inh % | Ki
1 | CC(C)NC(=O)c1ccc2c(c1)N=C(c1ccc(F)cc1)c1ccccc1S2 [drawing 1429] | 80% | 50.1 nM
2 | Cc1ccsc1C1=Nc2cc(C(=O)NCC(C)C)ccc2Sc2ccccc21 [drawing 1516] | 98% | 10 nM
3 | CCOCCNC(=O)c1ccc2c(c1)N=C(c1ccc(C#N)cc1)c1ccccc1S2 [drawing 1543] | 64% | 100 nM
4 | O=C(NN1CCCCCC1)c1ccc2c(c1)N=C(c1ccccc1F)c1ccccc1S2 [drawing 1342] | 101% | 25.1 nM
5 | CCCNC(=O)c1ccc2c(c1)N=C(c1cccc(F)c1)c1ccccc1S2 [drawing 1286] | 84% | 20 nM
6 | O=C(NC1CCC(F)(F)CC1)c1ccc2c(c1)N=C(c1ccc(Cl)s1)c1ccccc1S2 [drawing 1224] | 107% | 0.631 nM
7 | C[C@@H]1CCC[C@H](C)N1NC(=O)c1ccc2c(c1)N=C(c1ccc(F)cc1)c1ccccc1S2 [drawing 1356] | 108% | 31.6 nM
8 | CCCC1=Nc2cc(C(=O)NCCCc3ccccc3)ccc2Sc2ccccc21 [drawing 1357] | – | 31.6 nM
9 | O=C(NN1CCCCC1)c1ccc2c(c1)N=C(c1ccc(Cl)c(Cl)c1)c1ccccc1S2 [drawing 1305] | 96% | 2.51 nM
10 | CCCC1=Nc2cc(C(=O)NCCc3cc(OC)ccc3OC)ccc2Sc2ccccc21 [drawing 1549] | – | 100 nM
11 | Cc1ccc(CNC(=O)c2ccc3c(c2)N=C(c2ccc(Cl)s2)c2ccccc2S3)o1 [drawing 1223] | 106% | 0.501 nM
12 | CCCC1=Nc2cc(C(=O)NCc3ccc(F)cc3)ccc2Sc2ccccc21 [drawing 1529] | – | 79.4 nM
13 | CCCNC(=O)c1ccc2c(c1)N=C(c1cccc(Cl)c1)c1ccccc1S2 [drawing 1189] | 86% | 12.6 nM
14 | CCCCNC(=O)c1ccc2c(c1)N=C(c1ccc(Cl)s1)c1ccc(F)cc1S2 [drawing 1267] | 93% | 20 nM
15 | O=C(NN1CCCCC1)c1ccc2c(c1)N=C(c1ccc(Cl)cc1)c1ccccc1O2 | – | 79.4 nM
16 | O=C(NCc1cccnc1)c1ccc2c(c1)N=C(c1ccc(Cl)c(Cl)c1)c1ccccc1S2 [drawing 1401] | 102% | 6.31 nM
17 | Cc1ccsc1C1=Nc2cc(C(=O)NN3CCCCC3)ccc2Sc2ccccc21 [drawing 1182] | 59% | 12.6 nM
18 | CCCCNC(=O)c1ccc2c(c1)N=C(c1ccc(Cl)c(Cl)c1)c1ccccc1S2 [drawing 1311] | 94% | 3.16 nM
19 | CC(C)CCNC(=O)c1ccc2c(c1)N=C(c1cccc(F)c1)c1ccccc1S2 [drawing 1240] | 99% | 0.794 nM
20 | O=C(NCCc1ccncc1)c1ccc2c(c1)N=C(c1ccc(Cl)cc1)c1ccccc1S2 [drawing 1339] | 96% | 25.1 nM
21 | Cc1csc(CNC(=O)c2ccc3c(c2)N=C(c2cccc(F)c2)c2ccccc2S3)c1 [drawing 1234] | 89% | 0.794 nM
22 | O=C(NCCc1ccccn1)c1ccc2c(c1)N=C(c1ccc(Cl)cc1F)c1ccccc1S2 [drawing 1398] | 74% | 39.8 nM
23 | COCCNC(=O)c1ccc2c(c1)N=C(c1cccc(F)c1)c1ccccc1S2 [drawing 1468] | 86% | 50.1 nM
24 | NS(=O)(=O)c1ccc(CNC(=O)c2ccc3c(c2)N=C(c2ccc(Cl)cc2)c2ccccc2S3)cc1 [drawing 1486] | 66% | 63.1 nM
25 | O=C(NCc1ccccc1Cl)c1ccc2c(c1)N=C(C1CCCCC1)c1ccccc1S2 [drawing 1491] | – | 10 nM
26 | CCCCNC(=O)c1ccc2c(c1)N=C(c1ccc(Cl)s1)c1cc(F)ccc1S2 [drawing 1515] | 96% | 10 nM

Row | Compound | Binding rat Inh % | Ki
27 | O=C(NCc1ccccc1)c1ccc2c(c1)N=C(c1ccc(F)cc1)c1ccccc1S2 [drawing 1409] | – | 6.31 nM
28 | Cc1ccsc1C1=Nc2cc(C(=O)NCCC(C)C)ccc2Sc2ccccc21 [drawing 1251] | 88% | 15.8 nM
29 | CCN(CCNC(=O)c1ccc2c(c1)N=C(c1ccc(F)cc1)c1ccccc1S2)c1ccccc1 [drawing 1297] | – | 2.51 nM
30 | Cc1ccsc1C1=Nc2cc(C(=O)NC3CCCC3)ccc2Sc2ccccc21 [drawing 1382] | 102% | 31.6 nM
31 | O=C(NCCc1ccccc1)c1ccc2c(c1)N=C(c1cccc(Cl)c1)c1ccccc1S2 [drawing 1322] | – | 3.16 nM
32 | O=C(NCc1cccc(Cl)c1)c1ccc2c(c1)N=C(c1ccc(F)cc1)c1ccccc1S2 [drawing 1266] | – | 1.58 nM
33 | O=C(NCCc1cccnc1)c1ccc2c(c1)N=C(c1cccc(Cl)c1)c1ccccc1S2 [drawing 1293] | 97% | 20 nM
34 | COc1cccc(C2=Nc3cc(C(=O)NCCC(F)(F)F)ccc3Sc3ccccc32)n1 [drawing 1237] | 91% | 15.8 nM
35 | CC(C)CNC(=O)c1ccc2c(c1)N=C(c1ccc(Cl)cc1)c1ccccc1S2 [drawing 1314] | 92% | 3.16 nM
36 | O=C(NCc1ccccc1Br)c1ccc2c(c1)N=C(c1ccccc1F)c1ccccc1S2 [drawing 1355] | – | 31.6 nM
37 | O=C(NCCc1ccccc1)c1ccc2c(c1)N=C(c1ccccc1F)c1ccccc1S2 [drawing 1444] | – | 50.1 nM
38 | O=C(NC1CCCCC1)c1ccc2c(c1)N=C(c1ccccc1F)c1ccccc1S2 [drawing 1539] | 83% | 12.6 nM
39 | CC(NC(=O)c1ccc2c(c1)N=C(N1CCCCC1)c1ccccc1S2)c1ccccc1 (centres unmarked) | – | 20 nM
40 | COCCNC(=O)c1ccc2c(c1)N=C(c1ccc(Br)cc1)c1ccccc1S2 [drawing 1358] | 89% | 31.6 nM
41 | COc1ccc(C2=Nc3cc(C(=O)NNC(=O)c4ccccc4)ccc3Sc3ccccc32)cc1 [drawing 1535] | 68% | 79.4 nM
42 | CCOCCNC(=O)c1ccc2c(c1)N=C(c1cccc(Br)c1)c1ccccc1S2 [drawing 1323] | 76% | 25.1 nM
43 | O=C(NCCCc1ccccc1)c1ccc2c(c1)N=C(c1cccc(Cl)c1)c1ccccc1S2 [drawing 1327] | – | 3.16 nM
44 | CCCCNC(=O)c1ccc2c(c1)N=C(c1ccc(Cl)cc1)c1cc(F)ccc1S2 [drawing 1500] | 90% | 10 nM
45 | Cc1ccsc1C1=Nc2cc(C(=O)NCCc3cccnc3)ccc2Sc2ccccc21 [drawing 1521] | 93% | 79.4 nM
46 | O=C(NCCC(F)(F)F)c1ccc2c(c1)N=C(c1ccsc1)c1ccccc1S2 [drawing 1442] | 88% | 7.94 nM
47 | CCCCNC(=O)c1ccc2c(c1)N=C(c1ccc(Cl)cn1)c1cc(F)ccc1S2 [drawing 1230] | 83% | 15.8 nM
48 | CCOC(=O)N1CCC(NC(=O)c2ccc3c(c2)N=C(C2CCCCC2)c2ccccc2S3)CC1 [drawing 1517] | – | 10 nM
49 | CCCCNC(=O)c1ccc2c(c1)N=C(c1sccc1C)c1ccccc1S2 [drawing 1244] | 103% | 15.8 nM
50 | O=C(NCCc1ccc(Cl)cc1)c1ccc2c(c1)N=C(c1ccccc1)c1ccccc1S2 [drawing 1440] | – | 7.94 nM
51 | CCCC1=Nc2cc(C(=O)NC3CCCC(C)C3C)ccc2Sc2ccccc21 (centres unmarked) [drawing 1284] | – | 20 nM
